pIC50: −log10 of the molar value. Calls of active or inactive are those of the source. The rule behind the calls is not given here.
Key:
[1] = Antiproliferative activity against human SW620 cells after 72 hrs by MTT assay in presence of leucovorin; type: functional, cell-based; conditions: SW-620, 72 h
A549 = test: Antiproliferative activity against human A549 cells after 72 hrs by MTT assay in presence of leucovorin; type: functional, cell-based; conditions: A549, 72 h
KB [2] = test: Antiproliferative activity against human KB cells after 72 hrs by MTT assay in presence of leucovorin; type: functional, cell-based
KB [3] = test: Inhibition of colony formation in human KB cells at 1 uM measured after 10 to 14 days by methylene blue staining based assay presence of leucovorin; type: functional
[4] = target: Bifunctional purine biosynthesis protein ATIC (Homo sapiens) (UniProt P31939); test: Inhibition of AICARFTase in human SW620 cells assessed as growth inhibition at 0.001 to 10 uM coincubated with AICA; type: cell-based; conditions: SW-620
Bifunctional purine biosynthesis protein ATIC (Homo sapiens), sequence (P31939 whole entry, looked up): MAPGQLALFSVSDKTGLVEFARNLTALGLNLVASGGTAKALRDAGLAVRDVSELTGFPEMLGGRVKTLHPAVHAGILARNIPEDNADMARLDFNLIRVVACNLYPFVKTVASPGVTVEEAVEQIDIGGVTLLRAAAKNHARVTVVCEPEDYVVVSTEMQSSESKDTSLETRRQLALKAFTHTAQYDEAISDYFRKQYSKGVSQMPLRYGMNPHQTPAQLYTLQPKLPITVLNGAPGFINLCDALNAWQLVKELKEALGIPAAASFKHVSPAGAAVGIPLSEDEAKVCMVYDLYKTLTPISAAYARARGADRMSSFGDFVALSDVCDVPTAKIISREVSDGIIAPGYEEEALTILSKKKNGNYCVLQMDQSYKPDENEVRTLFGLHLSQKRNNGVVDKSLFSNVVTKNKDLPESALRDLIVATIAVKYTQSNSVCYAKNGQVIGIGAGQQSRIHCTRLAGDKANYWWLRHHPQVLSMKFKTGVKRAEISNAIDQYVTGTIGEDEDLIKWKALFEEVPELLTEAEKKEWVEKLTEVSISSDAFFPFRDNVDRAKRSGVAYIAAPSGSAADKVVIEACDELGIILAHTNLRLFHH

SW-620 [5] = test: Induction of apoptosis in human SW620 cells assessed as viable cells at 10 uM after 48 hrs by annexin V-FITC/PI staining based flow cytometry in presence of leucovorin (reference value: 84.0 %); type: functional; conditions: SW-620, 48 h, read-out: Activity
[6] = Cell cycle arrest in human SW620 cells assessed as accumulation at G2 phase at 10 uM after 96 hrs by propidium iodide staining based flow cytometry in presence of leucovorin (reference value: 10.3 %); type: functional; conditions: SW-620
[7] = Cell cycle arrest in human SW620 cells assessed as accumulation at G1 phase at 10 uM after 96 hrs by propidium iodide staining based flow cytometry in presence of leucovorin (reference value: 62.4 %); type: functional; conditions: SW-620
[8] = Cell cycle arrest in human SW620 cells assessed as accumulation at S phase at 10 uM after 96 hrs by propidium iodide staining based flow cytometry in presence of leucovorin (reference value: 27.3 %); type: functional; conditions: SW-620
SW-620 [9] = test: Induction of apoptosis in human SW620 cells assessed as late apoptotic cells at 10 uM after 48 hrs by annexin V-FITC/PI staining based flow cytometry in presence of leucovorin (reference value: 6.4 %); type: functional
SW-620 [10] = test: Induction of apoptosis in human SW620 cells assessed as early apoptotic cells at 10 uM after 48 hrs by annexin V-FITC/PI staining based flow cytometry in presence of leucovorin (reference value: 0.6 %); type: functional
SW-620 [11] = test: Induction of apoptosis in human SW620 cells assessed as necrotic cells at 10 uM after 48 hrs by annexin V-FITC/PI staining based flow cytometry in presence of leucovorin (reference value: 9 %); type: functional
[12] = target: Thymidylate synthase/AICAR transformylase (Homo sapiens) (UniProt P04818+P31939); test: Inhibition of thymidylate synthase/AICARFTase in human SW620 cells assessed as growth inhibition at 0.001 to 10 uM coincubated with AICA and […]; type: cell-based; conditions: SW-620
Thymidylate synthase/AICAR transformylase (Homo sapiens), sequence (P04818 whole entry, looked up): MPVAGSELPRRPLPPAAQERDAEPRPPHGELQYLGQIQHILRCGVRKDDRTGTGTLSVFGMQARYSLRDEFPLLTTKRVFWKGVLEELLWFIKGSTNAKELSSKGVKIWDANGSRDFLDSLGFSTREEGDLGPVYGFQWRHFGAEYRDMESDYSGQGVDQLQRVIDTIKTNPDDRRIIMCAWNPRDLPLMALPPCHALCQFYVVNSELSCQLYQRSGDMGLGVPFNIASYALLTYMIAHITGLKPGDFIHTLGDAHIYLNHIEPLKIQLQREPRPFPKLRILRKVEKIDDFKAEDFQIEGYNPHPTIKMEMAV
Thymidylate synthase/AICAR transformylase (Homo sapiens), sequence (P31939 whole entry, looked up): as the sequence (P31939 whole entry, looked up) above

[13] = target: GAR transformylase/AICAR transformylase (Homo sapiens) (UniProt P31939+P22102); test: Inhibition of GARFTase/AICARFTase in human SW620 cells assessed as growth inhibition at 0.001 to 10 uM coincubated with adenosine; type: cell-based; conditions: SW-620
GAR transformylase/AICAR transformylase (Homo sapiens), sequence (P22102 whole entry, looked up): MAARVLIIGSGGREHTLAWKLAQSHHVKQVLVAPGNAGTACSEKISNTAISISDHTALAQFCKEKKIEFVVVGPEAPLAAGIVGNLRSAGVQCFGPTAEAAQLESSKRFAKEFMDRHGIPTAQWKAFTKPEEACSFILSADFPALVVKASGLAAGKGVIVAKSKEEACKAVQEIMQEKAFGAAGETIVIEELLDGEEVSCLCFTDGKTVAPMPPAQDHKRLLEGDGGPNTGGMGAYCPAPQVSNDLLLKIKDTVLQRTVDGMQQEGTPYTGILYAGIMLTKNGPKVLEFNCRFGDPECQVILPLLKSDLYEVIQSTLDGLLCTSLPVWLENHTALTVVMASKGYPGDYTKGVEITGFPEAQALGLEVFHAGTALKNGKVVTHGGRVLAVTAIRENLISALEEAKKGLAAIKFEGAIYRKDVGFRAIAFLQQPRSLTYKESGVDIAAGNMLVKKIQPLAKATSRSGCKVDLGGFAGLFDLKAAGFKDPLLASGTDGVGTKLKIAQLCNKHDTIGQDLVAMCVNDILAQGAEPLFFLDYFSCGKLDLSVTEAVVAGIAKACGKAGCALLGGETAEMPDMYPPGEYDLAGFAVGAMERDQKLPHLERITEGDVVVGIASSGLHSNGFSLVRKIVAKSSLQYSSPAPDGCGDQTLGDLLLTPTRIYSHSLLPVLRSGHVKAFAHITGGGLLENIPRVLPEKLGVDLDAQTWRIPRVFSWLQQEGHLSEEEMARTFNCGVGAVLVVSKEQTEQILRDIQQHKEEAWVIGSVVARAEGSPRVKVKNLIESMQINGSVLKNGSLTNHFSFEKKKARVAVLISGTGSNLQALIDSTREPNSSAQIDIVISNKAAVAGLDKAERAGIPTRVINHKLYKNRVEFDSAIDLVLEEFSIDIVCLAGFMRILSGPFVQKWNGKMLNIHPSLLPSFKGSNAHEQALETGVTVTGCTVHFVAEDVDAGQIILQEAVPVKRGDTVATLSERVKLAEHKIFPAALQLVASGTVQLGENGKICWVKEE
GAR transformylase/AICAR transformylase (Homo sapiens), sequence (P31939 whole entry, looked up): as the sequence (P31939 whole entry, looked up) above

[14] = target: Thymidylate synthase/GAR transformylase/AICAR transformylase (Homo sapiens) (UniProt P04818+P31939+P22102); test: Inhibition of thymidylate synthase/GARFTase/AICARFTase in human SW620 cells assessed as growth inhibition at 0.001 to 10 uM coincubated with thymidine and adenosine; type: cell-based; conditions: SW-620
Thymidylate synthase/GAR transformylase/AICAR transformylase (Homo sapiens), sequence (P04818 whole entry, looked up): as the sequence (P04818 whole entry, looked up) above
Thymidylate synthase/GAR transformylase/AICAR transformylase (Homo sapiens), sequence (P22102 whole entry, looked up): as the sequence (P22102 whole entry, looked up) above
Thymidylate synthase/GAR transformylase/AICAR transformylase (Homo sapiens), sequence (P31939 whole entry, looked up): as the sequence (P31939 whole entry, looked up) above

[15] = target: Thymidylate synthase (Homo sapiens) (UniProt P04818); test: Inhibition of thymidylate synthase in human SW620 cells assessed as growth inhibition at 0.001 to 10 uM coincubated with excessive thymidine; type: cell-based; conditions: SW-620
Thymidylate synthase (Homo sapiens), sequence (P04818 2-313 limits assumed): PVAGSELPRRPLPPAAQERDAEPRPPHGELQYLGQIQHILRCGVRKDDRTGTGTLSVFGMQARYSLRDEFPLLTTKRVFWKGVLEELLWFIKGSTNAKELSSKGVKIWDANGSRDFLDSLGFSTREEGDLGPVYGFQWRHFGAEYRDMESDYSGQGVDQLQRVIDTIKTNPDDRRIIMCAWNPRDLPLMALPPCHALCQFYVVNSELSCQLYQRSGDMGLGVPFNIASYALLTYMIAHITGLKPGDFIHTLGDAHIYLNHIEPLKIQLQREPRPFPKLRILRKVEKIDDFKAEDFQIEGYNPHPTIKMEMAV

Structure (SMILES)	pIC50 (A549)	pIC50 (KB [2])	pIC50 [1]	Activity [6] [%]	Activity [7] [%]	Activity [8] [%]	other results
Nc1nc2[nH]c(CCSCCC(=O)N[C@@H](CCC(=O)O)C(=O)O)cc2c(=O)[nH]1	6.15	6.49	6.41	4.5	56.3	39.2	inhibition at 1 µM (KB [3]): 80%; growth inhibition (GI) [4]: inactive; viability at 10 µM (SW-620 [5]): 22.1%; Activity (SW-620 [9]): 34.8%; Activity (SW-620 [10]): 1.5%; Activity (SW-620 [11]): 41.6%; growth inhibition (GI) [12]: inactive; growth inhibition (GI) [13]: inactive; growth inhibition (GI) [14]: inactive; growth inhibition (GI) [15]: inactive
CN(Cc1cnc2nc(N)nc(N)c2n1)c1ccc(C(=O)N[C@@H](CCC(=O)O)C(=O)O)cc1 [METHOTREXATE]	6.00		7.89				
Nc1nc2[nH]c(CCSCCC(=O)NCc3ccccn3)cc2c(=O)[nH]1	4.11	5.05	4.92				
Nc1nc2[nH]cc(CCc3ccc(C(=O)N[C@@H](CCC(=O)O)C(=O)O)cc3)c2c(=O)[nH]1 [PEMETREXED]	5.90		7.10	0	45.8	54.2	
Nc1nc2[nH]c(CCSCC(=O)N[C@@H](CCC(=O)O)C(=O)O)cc2c(=O)[nH]1	6.18	6.43	6.35				

Second part, led by results:

pIC50 (A549)	pIC50 (KB [2])	Structure (SMILES)	pIC50 [1]	Activity [6] [%]	Activity [7] [%]	Activity [8] [%]	other results
4.25	4.43	Nc1nc2[nH]c(CCSCC(=O)NCc3cccnc3)cc2c(=O)[nH]1	4.60				
4.37	4.85	Nc1nc2[nH]c(CCSCC(=O)NCc3ccncc3)cc2c(=O)[nH]1	4.64				
4.85	4.55	Nc1nc2[nH]c(CCSCC(=O)NCc3ccccn3)cc2c(=O)[nH]1	4.44				
5.97	6.19	Nc1nc2[nH]c(CCSCCC(=O)NCc3cccnc3)cc2c(=O)[nH]1	6.18	8.6	66.5	24.9	inhibition at 1 µM (KB [3]): 70%; viability at 10 µM (SW-620 [5]): 51.8%; Activity (SW-620 [9]): 25.1%; Activity (SW-620 [10]): 1.1%; Activity (SW-620 [11]): 22%
5.10	4.34	Nc1nc2[nH]c(CCSCCC(=O)NCc3ccncc3)cc2c(=O)[nH]1	4.61				

— ChEMBL document CHEMBL3797114, “Design, synthesis and biological evaluation of 6-substituted pyrrolo[2,3-d]pyrimidines as dual inhibitors of TS and AICARFTase and as potential antitumor agents” (Eur J Med Chem, 2016)
